# Results reported in article PMC4028973 (Journal of the American Chemical Society, 2014).
# Like-named read-outs stand apart in the source and are kept apart here.
# Key:
# [1] = biological target: T1, AsbA (Bacillus anthracis, UniProt A0A0F7RJ52); type: biochemical, B. anthracis; details: read-out: IC50 against AsbA
# [2] = biological target: AsbB (Bacillus anthracis, UniProt Q81RQ8); type: biochemical, B. anthracis; details: for IC50: read-out: IC50 against AsbB
# [3] = system: S. aureus (Newman); type: cell-based
# [4] = biological target: T2, SbnE (Staphylococcus aureus, UniProt Q2G1M9); type: biochemical, S. aureus; details: read-out: IC50 against SbnE
# T2 sequence (Q2G1M9 1-578): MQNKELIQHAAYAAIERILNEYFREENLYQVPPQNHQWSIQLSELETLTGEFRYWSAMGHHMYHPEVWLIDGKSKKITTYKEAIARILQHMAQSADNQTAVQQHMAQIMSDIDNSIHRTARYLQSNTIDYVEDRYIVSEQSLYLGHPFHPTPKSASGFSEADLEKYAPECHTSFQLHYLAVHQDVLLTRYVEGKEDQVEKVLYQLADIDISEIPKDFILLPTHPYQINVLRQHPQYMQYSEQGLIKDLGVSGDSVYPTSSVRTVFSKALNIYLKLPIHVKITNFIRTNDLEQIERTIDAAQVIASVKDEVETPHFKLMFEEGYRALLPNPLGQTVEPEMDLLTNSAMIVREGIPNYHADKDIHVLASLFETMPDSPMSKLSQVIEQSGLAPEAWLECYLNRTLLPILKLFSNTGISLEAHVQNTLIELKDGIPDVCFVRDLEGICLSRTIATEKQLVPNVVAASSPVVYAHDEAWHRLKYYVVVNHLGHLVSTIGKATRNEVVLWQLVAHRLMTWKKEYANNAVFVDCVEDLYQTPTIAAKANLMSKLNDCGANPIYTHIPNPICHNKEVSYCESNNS
# [5] = system: B. anthracis (Sterne 34F2); type: cell-based
# [6] = system: S. flexneri (BS103); type: cell-based, Shigella flexneri
# [7] = biological target: T2, SbnE; type: biochemical, S. aureus
# [8] = biological target: T1, AsbA; type: biochemical, B. anthracis
# [9] = system: MRSA (USA 300); type: cell-based, S. aureus
# [10] = system: E. coli (MC 1061); type: cell-based
# [11] = system: S. typhimurium; type: cell-based, Salmonella typhimurium
# Chain of AsbB (Q81RQ8 whole entry, looked up): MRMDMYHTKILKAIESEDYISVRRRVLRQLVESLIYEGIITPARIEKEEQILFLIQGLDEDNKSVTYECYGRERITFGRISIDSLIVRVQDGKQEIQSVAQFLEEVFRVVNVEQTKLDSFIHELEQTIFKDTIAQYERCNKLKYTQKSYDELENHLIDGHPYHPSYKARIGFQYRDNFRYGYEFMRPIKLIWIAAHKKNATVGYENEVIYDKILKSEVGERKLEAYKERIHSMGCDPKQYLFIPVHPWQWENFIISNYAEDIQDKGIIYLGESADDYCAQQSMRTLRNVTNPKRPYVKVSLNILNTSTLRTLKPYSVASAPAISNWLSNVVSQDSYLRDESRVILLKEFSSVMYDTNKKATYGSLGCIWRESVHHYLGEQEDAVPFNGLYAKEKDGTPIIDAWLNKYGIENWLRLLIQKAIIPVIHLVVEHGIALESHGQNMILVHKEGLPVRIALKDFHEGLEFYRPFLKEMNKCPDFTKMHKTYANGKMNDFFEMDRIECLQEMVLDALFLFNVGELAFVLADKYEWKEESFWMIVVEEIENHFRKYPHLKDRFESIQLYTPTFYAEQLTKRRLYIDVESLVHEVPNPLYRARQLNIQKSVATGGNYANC
# T1 sequence (A0A0F7RJ52 whole entry, looked up): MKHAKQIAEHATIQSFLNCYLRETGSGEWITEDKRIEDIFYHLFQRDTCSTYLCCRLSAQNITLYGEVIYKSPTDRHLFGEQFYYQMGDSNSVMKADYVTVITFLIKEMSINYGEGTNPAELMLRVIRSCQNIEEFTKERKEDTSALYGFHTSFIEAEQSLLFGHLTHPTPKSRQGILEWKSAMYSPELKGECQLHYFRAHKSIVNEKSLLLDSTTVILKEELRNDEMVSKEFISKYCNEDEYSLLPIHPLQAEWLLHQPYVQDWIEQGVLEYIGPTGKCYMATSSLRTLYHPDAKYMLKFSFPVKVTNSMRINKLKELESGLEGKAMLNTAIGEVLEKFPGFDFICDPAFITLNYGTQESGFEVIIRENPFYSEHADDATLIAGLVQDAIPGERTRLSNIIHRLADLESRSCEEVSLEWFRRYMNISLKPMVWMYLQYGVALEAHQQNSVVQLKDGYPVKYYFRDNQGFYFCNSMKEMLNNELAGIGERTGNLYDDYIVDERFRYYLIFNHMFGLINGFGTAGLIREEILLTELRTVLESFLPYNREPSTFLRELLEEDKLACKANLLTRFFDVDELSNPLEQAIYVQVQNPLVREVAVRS
smiles,measurement,setting,value
"CC(=O)[C@H](C)C[C@@H](C)C[C@H](C)CC[C@@H](O)C[C@@H](O)[C@@H](CC(C)C)[C@@H](O)c1cc(O)cc(O)c1 [BmcB, baulamycin B]",IC50,[1],200 µM
same,inhibition against AsbB (in words),[2],negligible
same,IC50,[2],> 1000 µM
same,potency against S. aureus (Newman) cultures compared with BmcA (in words),[3],significantly less potent
same,IC50,[4],19 µM
"CCC(=O)[C@H](C)C[C@@H](C)C[C@H](C)CC[C@@H](O)C[C@@H](O)[C@@H](CC(C)C)[C@@H](O)c1cc(O)cc(O)c1 [BmcA, baulamycin A]",IC50,"[5]; read-out: IDM IC50, B. anthracis (Sterne 34F2)",110 µM
same,IC50,"[5]; read-out: IRM IC50, B. anthracis (Sterne 34F2)",120 µM
same,IC50,"[6]; read-out: IDM IC50, S. flexneri (BS103)",20 µM
same,IC50,"[6]; read-out: IRM IC50, S. flexneri (BS103)",46 µM
same,mode of inhibition of SbnE,[7],"reversible, competitive"
same,Ki,"[7]; read-out: Ki, SbnE, with respect to ATP",680 µM
same,Ki,"[7]; read-out: Ki, SbnE, with respect to citric acid",50 µM
same,Ki,"[7]; read-out: Ki, SbnE, with respect to polyamine substrate",210 µM
same,mode of inhibition of AsbA,[8],"reversible, competitive"
same,Ki,"[8]; read-out: Ki, AsbA, with respect to ATP",230 µM
same,Ki,"[8]; read-out: Ki, AsbA, with respect to citric acid",110 µM
same,Ki,"[8]; read-out: Ki, AsbA, with respect to polyamine substrate",170 µM
same,IC50,[1],180 µM
same,IC50,"[9]; read-out: IDM IC50, MRSA (USA 300)",130 µM
same,IC50,"[9]; read-out: IRM IC50, MRSA (USA 300)",130 µM
same,inhibition against AsbB (in words),[2],negligible
same,IC50,[2],> 1000 µM
same,IC50,"[10]; read-out: IDM IC50, E. coli (MC 1061)",4.2 µM
same,IC50,"[10]; read-out: IRM IC50, E. coli (MC 1061)",150 µM
same,IC50,"[3]; read-out: IDM IC50, S. aureus (Newman)",69 µM
same,IC50,"[3]; read-out: IRM IC50, S. aureus (Newman)",86 µM
same,IC50,"[11]; read-out: IC50, S. typhimurium, iron-depleted conditions",> 1000 µM
same,IC50,"[11]; read-out: IC50, S. typhimurium, iron-rich conditions",> 1000 µM
same,IC50,"[11]; read-out: IDM IC50, S. typhimurium",> 1000 µM
same,IC50,"[11]; read-out: IRM IC50, S. typhimurium",> 1000 µM
same,IC50,[4],4.8 µM
